Assay results as given in article PMC12888861, “Antibacterial activity of enmetazobactam against Acinetobacter spp.: a molecular dissection of mechanism of action and resistance determinants” (Antimicrobial Agents and Chemotherapy, 2025).
Values after ≈ are worked out from the molar mass of the structure shown.

Key:
[1] = system: carbapenem-resistant A. baumannii (CRAB) isolates (n = 67); assay: MIC, broth microdilution (EUCAST), carbapenem-resistant A. baumannii isolates; assay type: cell-based, Acinetobacter baumannii; settings: ETZ fixed 8 mg/L in combinations
Outline: (§1)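 Broth microdilution per EUCAST v.15 guidelines on clinical Acinetobacter isolates from a Spanish 2020 multicenter collection; enmetazobactam also tested alone. A. baumannii ATCC 19606 served as reference strain, in duplicate assays.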

[2] = system: carbapenem-susceptible A. baumannii isolates (n = 54); assay: MIC, broth microdilution (EUCAST), carbapenem-susceptible A. baumannii isolates; assay type: cell-based, Acinetobacter baumannii
Outline: as §1

[3] = Acinetobacter baumannii, carbapenem-susceptible A. baumannii isolates (n = 54), ETZ fixed 8 mg/L in combinations

CC1(C)[C@H](C(=O)O)N2C(=O)C[C@H]2S1(=O)=O [sulbactam]
MIC distribution 4 ([1]; cumulative share of CRAB isolates (n = 67) at MIC 4 mg/L): 17.9 | MIC distribution 8 ([1]; cumulative share of CRAB isolates (n = 67) at MIC 8 mg/L): 34.3 | MIC distribution 16 ([1]; cumulative share of CRAB isolates (n = 67) at MIC 16 mg/L): 89.6 | MIC distribution 32 ([1]; cumulative share of CRAB isolates (n = 67) at MIC 32 mg/L): 100 | MIC distribution 64 ([1]; cumulative share of CRAB isolates (n = 67) at MIC 64 mg/L): 100 | MIC distribution 0.12 [2]: 0 | MIC distribution 0.25 [2]: 0 | MIC distribution 0.5 [2]: 27.8 | MIC distribution 1 [2]: 79.6 | MIC distribution 2 [2]: 96.3 | MIC distribution 4 [2]: 100 | MIC distribution 8 [2]: 100 | MIC distribution 16 [2]: 100 | MIC distribution ≤0.06 [2]: 0 | MIC distribution ≥32 [2]: 100 | MIC ([2]; Acinetobacter baumannii, MBC set, isolate Ab1, A. baumannii ST 164, ADC-6, OXA-91, non-CHDLs-producing): 0.5 µg/mL (≈ 2.14 µM) | MIC ([2]; Acinetobacter baumannii, MBC set, isolate Ab11, A. baumannii ST 239, ADC-2, OXA-51, non-CHDLs-producing): 1 µg/mL (≈ 4.29 µM) | MIC ([2]; Acinetobacter baumannii, MBC set, isolate Ab34, A. baumannii ST 2182, ADC-2, OXA-130, non-CHDLs-producing): 0.5 µg/mL (≈ 2.14 µM) | MIC ([2]; Acinetobacter baumannii, isolate Ab1, ST 164, ADC-6, OXA-91, in combinations ETZ fixed at 8 mg/L): 1 µg/mL | MIC ([2]; Acinetobacter baumannii, isolate Ab11, ST 239, ADC-2, OXA-51, in combinations ETZ fixed at 8 mg/L): 1 µg/mL | MIC ([2]; Acinetobacter baumannii, isolate Ab34, ST 2182, ADC-2, OXA-130, in combinations ETZ fixed at 8 mg/L): 0.5 µg/mL | MIC ([2]; Acinetobacter baumannii, isolate Ab38, ST 866, ADC-2, OXA-385, in combinations ETZ fixed at 8 mg/L): 1 µg/mL | MIC ([2]; Acinetobacter baumannii, isolate Ab40, ST 2176, ADC-2, OXA-64, in combinations ETZ fixed at 8 mg/L): 1 µg/mL | MIC ([2]; Acinetobacter baumannii, isolate Ab50, ST 2176, ADC-2, OXA-64, in combinations ETZ fixed at 8 mg/L): 1 µg/mL | MIC ([2]; Acinetobacter baumannii, isolate Ab57, ST 1470, ADC-58, OXA-106, in combinations ETZ fixed at 8 mg/L): 1 µg/mL | MIC ([2]; Acinetobacter baumannii, isolate Ab58, ST 6, ADC-2, OXA-94, in combinations ETZ fixed at 8 mg/L): 2 µg/mL | MIC ([2]; Acinetobacter baumannii, isolate Ab61, ST 1639, ADC-7, OXA-64, in combinations ETZ fixed at 8 mg/L): 2 µg/mL | MIC ([2]; Acinetobacter baumannii, isolate Ab62, ST 265, ADC-2, OXA-91, in combinations ETZ fixed at 8 mg/L): 1 µg/mL | MIC ([2]; Acinetobacter baumannii, isolate Ab67, ST 1, ADC-11, OXA-69, in combinations ETZ fixed at 8 mg/L): 1 µg/mL | MIC ([2]; Acinetobacter baumannii, isolate Ab79, ST 106, ADC-11, OXA-78, in combinations ETZ fixed at 8 mg/L): 1 µg/mL | MIC ([2]; Acinetobacter baumannii, isolate Ab80, ST 2182, ADC-6, OXA-208, in combinations ETZ fixed at 8 mg/L): 4 µg/mL | MIC ([2]; Acinetobacter baumannii, isolate Ab81, ST 25, ADC-79, OXA-64, in combinations ETZ fixed at 8 mg/L): 2 µg/mL | MIC ([2]; Acinetobacter baumannii, isolate Ab93, ST 25, ADC-79, OXA-64, in combinations ETZ fixed at 8 mg/L): 1 µg/mL | MIC ([2]; Acinetobacter baumannii, isolate Ab95, ST 582, ADC-5, OXA-317, in combinations ETZ fixed at 8 mg/L): 1 µg/mL | MIC ([2]; Acinetobacter baumannii, isolate Ab96, ST 582, ADC-5, OXA-317, in combinations ETZ fixed at 8 mg/L): 1 µg/mL | MIC ([2]; Acinetobacter baumannii, isolate Ab100, ST 145, ADC-58, OXA-343, in combinations ETZ fixed at 8 mg/L): 1 µg/mL | MIC ([2]; Acinetobacter baumannii, isolate Ab110, ST 1623, ADC-3, OXA-70, in combinations ETZ fixed at 8 mg/L): 1 µg/mL | MIC ([2]; Acinetobacter baumannii, isolate Ab112, ST 193, ADC-like, OXA-120, in combinations ETZ fixed at 8 mg/L): 0.5 µg/mL | MIC ([2]; Acinetobacter baumannii, isolate Ab124, ST 2176, ADC-2, OXA-64, in combinations ETZ fixed at 8 mg/L): 1 µg/mL | MIC ([2]; Acinetobacter baumannii, isolate Ab127, ST 2176, ADC-2, OXA-64, in combinations ETZ fixed at 8 mg/L): 2 µg/mL | MIC ([2]; Acinetobacter baumannii, isolate Ab128, ST 2176, ADC-2, OXA-64, in combinations ETZ fixed at 8 mg/L): 1 µg/mL | MIC ([2]; Acinetobacter baumannii, isolate Ab130, ST 32, ADC-79, OXA-100, in combinations ETZ fixed at 8 mg/L): 2 µg/mL | MIC ([2]; Acinetobacter baumannii, isolate Ab131, ST 687, ADC-like, OXA-208, in combinations ETZ fixed at 8 mg/L): 1 µg/mL | MIC ([2]; Acinetobacter baumannii, isolate Ab132, ST 1112, ADC-79, OXA-89, in combinations ETZ fixed at 8 mg/L): 2 µg/mL | MIC ([2]; Acinetobacter baumannii, isolate Ab136, ST 2183, ADC-like, OXA-66, in combinations ETZ fixed at 8 mg/L): 1 µg/mL | MIC ([2]; Acinetobacter baumannii, isolate Ab139, ST 54, ADC-like, OXA-365, in combinations ETZ fixed at 8 mg/L): 1 µg/mL | MIC ([2]; Acinetobacter baumannii, isolate Ab142, ST 1, ADC-like, OXA-69, in combinations ETZ fixed at 8 mg/L): 4 µg/mL | MIC ([2]; Acinetobacter baumannii, isolate Ab143, ST 1328, ADC-76, OXA-408, in combinations ETZ fixed at 8 mg/L): 2 µg/mL | MIC ([2]; Acinetobacter baumannii, isolate Ab149, ST 1112, ADC-6, OXA-407, in combinations ETZ fixed at 8 mg/L): 1 µg/mL | MIC ([2]; Acinetobacter baumannii, isolate Ab150, ST 2184, ADC-like, OXA-64, in combinations ETZ fixed at 8 mg/L): 2 µg/mL | MIC ([2]; Acinetobacter baumannii, isolate Ab152, ST 132, ADC-2, OXA-120, in combinations ETZ fixed at 8 mg/L): 1 µg/mL | MIC ([2]; Acinetobacter baumannii, isolate Ab158, ST 2034, ADC-2, OXA-217, in combinations ETZ fixed at 8 mg/L): 0.5 µg/mL | MIC ([2]; Acinetobacter baumannii, isolate Ab163, ST 132, ADC-2, OXA-120, in combinations ETZ fixed at 8 mg/L): 0.5 µg/mL | MIC ([2]; Acinetobacter baumannii, isolate Ab167, ST 1623, ADC-like, OXA-345, in combinations ETZ fixed at 8 mg/L): 0.5 µg/mL | MIC ([2]; Acinetobacter baumannii, isolate Ab168, ST 1470, ADC-75, OXA-402, in combinations ETZ fixed at 8 mg/L): 0.5 µg/mL | MIC ([2]; Acinetobacter baumannii, isolate Ab170, ST 2110, ADC-4, OXA-338, in combinations ETZ fixed at 8 mg/L): 1 µg/mL | MIC ([2]; Acinetobacter baumannii, isolate Ab172, ST 2185, ADC-5, OXA-217, in combinations ETZ fixed at 8 mg/L): 2 µg/mL | MIC ([2]; Acinetobacter baumannii, isolate Ab185, ST 2, ADC-26, OXA-66, in combinations ETZ fixed at 8 mg/L): 1 µg/mL | MIC ([2]; Acinetobacter baumannii, isolate Ab187, ST 105, ADC-2, OXA-430, in combinations ETZ fixed at 8 mg/L): 1 µg/mL | MIC ([2]; Acinetobacter baumannii, isolate Ab188, ST 203, ADC-6, OXA-217, PDC-1, in combinations ETZ fixed at 8 mg/L): 1 µg/mL | MIC ([2]; Acinetobacter baumannii, isolate Ab189, ST 1405, ADC-3, OXA-120, in combinations ETZ fixed at 8 mg/L): 0.5 µg/mL | MIC ([2]; Acinetobacter baumannii, isolate Ab190, ST 2186, ADC-6, OXA-413, in combinations ETZ fixed at 8 mg/L): 0.5 µg/mL | MIC ([2]; Acinetobacter baumannii, isolate Ab193, ST 164, ADC-6, OXA-91, in combinations ETZ fixed at 8 mg/L): 0.5 µg/mL | MIC ([2]; Acinetobacter baumannii, isolate Ab195, ST 1, ADC-11, OXA-69, in combinations ETZ fixed at 8 mg/L): 1 µg/mL | MIC ([2]; Acinetobacter baumannii, isolate Ab200, ST 1336, ADC-2, OXA-51, in combinations ETZ fixed at 8 mg/L): 0.5 µg/mL | MIC ([2]; Acinetobacter baumannii, isolate Ab202, ST 1, ADC-11, OXA-69, in combinations ETZ fixed at 8 mg/L): 1 µg/mL | MIC ([2]; Acinetobacter baumannii, isolate Ab203, ST 221, ADC-6, OXA-88, in combinations ETZ fixed at 8 mg/L): 0.5 µg/mL | MIC ([2]; Acinetobacter baumannii, isolate Ab206, ST 2187, ADC-58, OXA-69, in combinations ETZ fixed at 8 mg/L): 0.5 µg/mL | MIC ([2]; Acinetobacter baumannii, isolate Ab209, in combinations ETZ fixed at 8 mg/L): 0.5 µg/mL | MIC ([2]; Acinetobacter baumannii, isolate Ab213, in combinations ETZ fixed at 8 mg/L): 0.5 µg/mL | MIC ([2]; Acinetobacter baumannii, isolate Ab218, in combinations ETZ fixed at 8 mg/L): 1 µg/mL | MIC ([2]; Acinetobacter baumannii, isolate Ab220, in combinations ETZ fixed at 8 mg/L): 0.5 µg/mL | MIC50 [2, 3]: 1 µg/mL | MIC90 [2, 3]: 2 µg/mL
